Data: patent US8828469B2, “Use of alkamides for masking an unpleasant flavor” (Symrise AG, priority 2007, dated 2014)

Test: Tests carried out by the Applicant on masking or reducing unpleasant flavor impressions
Details: for effect for masking or reducing the unpleasant flavor impression of an unpleasant-tasting substance: among the alkamides tested by the Applicant

Row | SMILES | effect for masking or reducing the unpleasant flavor impression of an unpleasant-tasting substance | effect to change, mask or reduce the unpleasant flavor impression (very low concentrations which are not sufficient to intensify salivation)
1 | CCCCC/C=C/C=C/C(=O)NCC(C)C [Formula (1), 2E,4E-decadienoic acid-N-isobutylamide] | best effect | very strong effect
2 | CCCCC/C=C\C=C\C(=O)NCC(C)C [Formula (2), 2E,4Z-decadienoic acid-N-isobutylamide] | best effect | –
3 | CCCCC/C=C\C=C/C(=O)NCC(C)C [Formula (3), 2Z,4Z-decadienoic acid-N-isobutylamide] | best effect | –
4 | CCCCC/C=C/C=C\C(=O)NCC(C)C [Formula (4), 2Z,4E-decadienoic acid-N-isobutylamide] | best effect | –
